Among the test systems are IGROV-1; Hs-578T; MDA-MB-231; 786-0; M14; A549; LOX IMVI; T47D; OVCAR-4; K562; NCI-H23; OVCAR-8; HCT-15; SW-620; HCT-116; OVCAR-3; OVCAR-5; SK-MEL-2; SK-OV-3; A498.
Common to all, as to assay: NCI tumour cell line growth inhibition, 48 h

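Step 1: Grow cells in 96-well plates. Step 2: Expose to compound for 48 hours at 5 concentrations. Step 3: Interpolate endpoints linearly; if unreached, use highest concentration. GI50 is the concentration that inhibits growth by half.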 Calls of active or inactive are those of the source. Rule as the data show it: active = GI50 up to about 1.1 µM and inactive = higher. Where a SMILES comes first, the peptide text is derived from it. [ ]: non-standard residue; d: D form. The star is where a group is joined. Phe(4-NO2) = N[CH](Cc1ccc([N+](=O)[O-])cc1)C(=O)O; Cbz = O=C(OCc1ccccc1)*

As to `CC(N/N=C(\S)N1CCN(c2ccccn2)CC1)c1cccc[n+]1[O-]` (stereo not drawn), the GI50 in the assay on IGROV-1 was 43.8 µM (inactive); in the assay on Hs-578T it was 85.7 µM (inactive); in the assay with MDA-MB-231, 19 µM (inactive); with 786-0 it was 7.71 µM (inactive); in the assay with M14 it was 28.3 µM (inactive); with A549 it was 8.65 µM (inactive). The GI50 was 8.17 µM (inactive) in the assay with LOX IMVI; 77.1 µM (inactive) with T47D; 14 µM (inactive) in the assay on OVCAR-4; 0.811 µM (active) with K562; 28.2 µM (inactive) with NCI-H23; 6.9 µM (inactive) in the assay with OVCAR-8. In addition, the GI50 in the assay on HCT-15 was 3.28 µM; with SW-620, 4.85 µM (inactive); in the assay on HCT-116, 2.82 µM (inactive); in the assay on OVCAR-3 it was 4.9 µM (inactive).
For the compound `CN(C)c1ccc(/C=C(\C#N)c2nc(-c3cc4ccccc4oc3=O)cs2)cc1`, the GI50 was 15.4 µM (inactive) in the assay on IGROV-1; 13.7 µM (inactive) in the assay on Hs-578T; 11.6 µM (inactive) in the assay on MDA-MB-231; 7.23 µM (inactive) with 786-0; 15.7 µM (inactive) with M14; > 50 µM (inactive) in the assay with A549. In addition, the GI50 in the assay with LOX IMVI is > 50 µM (inactive); with OVCAR-5, > 50 µM (inactive); with T47D, > 50 µM (inactive); in the assay on SK-MEL-2, 12 µM (inactive); in the assay with SK-OV-3, 19.9 µM (inactive); with OVCAR-4 it was 24.9 µM (inactive). Moreover, the GI50 was > 50 µM (inactive) with K562; 20.3 µM (inactive) in the assay on OVCAR-8; greater than 50 µM in the assay on HCT-15; > 50 µM (inactive) with SW-620; 20 µM (inactive) with HCT-116.
On to `CNC(=O)OCc1nc(N=[N+]=[N-])n(C)c1COC(=O)NC`, for which the GI50 with IGROV-1 is > 100 µM (inactive); with Hs-578T, > 100 µM (inactive); in the assay with MDA-MB-231, 95.5 µM (inactive); with 786-0, > 10 µM (inactive); in the assay on A549 it was 61.7 µM (inactive); in the assay on LOX IMVI, 60.8 µM (inactive). The GI50 with OVCAR-5 was > 100 µM (inactive); with SK-MEL-2, 26.7 µM (inactive); in the assay on OVCAR-4 it was 37.1 µM (inactive); in the assay on K562 it was 46.5 µM (inactive); in the assay on NCI-H23, 54.2 µM (inactive); in the assay on OVCAR-8, 58.9 µM (inactive). The GI50 with HCT-15 is 60.4 µM; in the assay with SW-620, 66.1 µM (inactive); in the assay on HCT-116, 46.2 µM (inactive); with OVCAR-3, 39.2 µM (inactive); with A498, 32.3 µM (inactive).
On to `CC1C(c2ccc3c(c2)OCO3)c2cc3c(cc2OC1N1CCCC1)OCO3` (stereo not drawn), for which the GI50 is 30.3 µM (inactive) with IGROV-1; 10.6 µM (inactive) in the assay on Hs-578T; 45.5 µM (inactive) in the assay on 786-0; 25.5 µM (inactive) in the assay with M14; 31.3 µM (inactive) in the assay with A549; 34.8 µM (inactive) in the assay on LOX IMVI. The GI50 is 61.4 µM (inactive) with OVCAR-5; 35.4 µM (inactive) in the assay on T47D; 31.3 µM (inactive) with SK-MEL-2; 24.4 µM (inactive) in the assay with K562; 38.7 µM (inactive) in the assay on NCI-H23; 35.8 µM (inactive) in the assay on OVCAR-8. In addition, the GI50 in the assay with HCT-15 was 30 µM; with SW-620 it was 32.5 µM (inactive); with HCT-116, 18 µM (inactive); in the assay with OVCAR-3, 25.8 µM (inactive).
In the case of `CCSCC(=O)N1CCc2c([nH]c3ccccc23)C1=O`, the GI50 with IGROV-1 was > 100 µM (inactive); in the assay on Hs-578T, 23.2 µM (inactive); in the assay on MDA-MB-231 it was > 100 µM (inactive); with 786-0, > 100 µM (inactive); in the assay with M14, > 100 µM (inactive); in the assay with A549 it was > 100 µM (inactive). For the same compound, the GI50 was > 100 µM (inactive) in the assay on LOX IMVI; 91 µM (inactive) in the assay with OVCAR-5; > 100 µM (inactive) in the assay with T47D; > 100 µM (inactive) with SK-MEL-2; > 100 µM (inactive) in the assay with SK-OV-3; > 100 µM (inactive) in the assay on OVCAR-4. The GI50 is > 100 µM (inactive) in the assay with K562; > 100 µM (inactive) in the assay with NCI-H23; > 100 µM (inactive) in the assay on OVCAR-8; greater than 100 µM in the assay on HCT-15; > 100 µM (inactive) in the assay with SW-620; > 100 µM (inactive) in the assay with HCT-116. Also, the GI50 in the assay with OVCAR-3 was > 100 µM (inactive).
With `[N-]=[N+]=Nc1c(Cc2ccccc2)c(=O)oc2ccccc12`, the GI50 with IGROV-1 is 21.5 µM (inactive); with Hs-578T, 19.1 µM (inactive); in the assay with MDA-MB-231, 39.3 µM (inactive); in the assay with 786-0, 40.6 µM (inactive); in the assay on M14 it was 25.5 µM (inactive); in the assay on A549, 32.5 µM (inactive). Also, the GI50 is 14.2 µM (inactive) in the assay on LOX IMVI; 61.9 µM (inactive) with OVCAR-5; 56.8 µM (inactive) with T47D; 28.1 µM (inactive) in the assay with SK-MEL-2; 32.1 µM (inactive) with SK-OV-3; 32.4 µM (inactive) with OVCAR-4. Also, the GI50 in the assay on K562 was 18.6 µM (inactive); with NCI-H23, 26.4 µM (inactive); with HCT-15, 31 µM; in the assay with SW-620, 14.8 µM (inactive); in the assay on HCT-116 it was > 10 µM (inactive); with OVCAR-3 it was 49.5 µM (inactive).
For the compound `CCOC(=O)CCC(NC(=O)OCc1ccccc1)C(=O)NC(CCC(=O)OCC)C(=O)NC(Cc1ccc([N+](=O)[O-])cc1)C(=O)NC(CCC(=O)OCC)C(=O)NC(CCC(=O)OCC)C(=O)OCC` (stereo not drawn) (Cbz-E(OEt)E(OEt)[Phe(4-NO2)]E(OEt)E(OEt)-OEt; configuration not given here), the GI50 in the assay with IGROV-1, in the assay with Hs-578T, in the assay on MDA-MB-231, in the assay on 786-0, in the assay with A549 and in the assay with LOX IMVI was > 100 µM (inactive) throughout. The GI50 in the assay with OVCAR-5, in the assay with T47D, with SK-MEL-2, in the assay on SK-OV-3, with OVCAR-4 and in the assay with NCI-H23 was > 100 µM (inactive) each time. Besides, the GI50 is > 100 µM (inactive) with OVCAR-8, greater than 100 µM in the assay on HCT-15, > 100 µM (inactive) in the assay with SW-620 and > 100 µM (inactive) with HCT-116.
As for `COc1ccc(-c2c3c(n(C4OC(CO)C(O)C(O)C4O)c(=S)c2C#N)CCC3)cc1` (stereo not drawn), the GI50 in the assay on IGROV-1 was 48.6 µM (inactive); in the assay on Hs-578T, 38.7 µM (inactive); in the assay on MDA-MB-231, > 100 µM (inactive); in the assay on 786-0, 36 µM (inactive); in the assay with M14, 36.2 µM (inactive); in the assay on A549 it was 68.9 µM (inactive). Also, the GI50 with LOX IMVI is 42.1 µM (inactive); in the assay on OVCAR-5 it was 74.6 µM (inactive); with T47D, 44.9 µM (inactive); in the assay on SK-MEL-2 it was 58.5 µM (inactive); in the assay with SK-OV-3, 91.4 µM (inactive); in the assay on OVCAR-4 it was 79.1 µM (inactive). The GI50 in the assay on K562 is 41.9 µM (inactive); in the assay with NCI-H23, 28.7 µM (inactive); with HCT-15 it was 85.7 µM; in the assay with SW-620, 71.9 µM (inactive); with HCT-116, 49.2 µM (inactive); in the assay with OVCAR-3 it was 25.7 µM (inactive).
Turning to `COc1ccc(C(=O)/C=C/c2ccc(OCCCOc3ccc(/C=C/C(=O)c4ccc(OC)c(OC)c4)cc3)cc2)cc1OC`, the GI50 in the assay with IGROV-1, with Hs-578T, with MDA-MB-231, in the assay on 786-0, in the assay on M14 and with A549 was > 100 µM (inactive) throughout. For the same compound, the GI50 with T47D, with SK-MEL-2, in the assay with SK-OV-3, with OVCAR-4, in the assay on K562 and with OVCAR-8 was > 100 µM (inactive) throughout. Moreover, the GI50 in the assay on HCT-15 was greater than 100 µM; in the assay with SW-620, > 100 µM (inactive); with HCT-116 it was > 100 µM (inactive).
For the compound `C=C1C(=O)C23C(O)CC4C(C)(C)CCC(O)C4(C)C2CC(OC(C)=O)C1[C@H]3O` (stereo partly drawn), the GI50 was 4.79 µM (inactive) in the assay on IGROV-1; 24 µM (inactive) with Hs-578T; 3.27 µM (inactive) in the assay on MDA-MB-231; 2.4 µM (inactive) in the assay on 786-0; 2.82 µM (inactive) with M14; 4.06 µM (inactive) in the assay with A549. The GI50 was 0.188 µM (active) in the assay on LOX IMVI; 9.75 µM (inactive) in the assay with OVCAR-5; 2.55 µM (inactive) with SK-MEL-2; 17.3 µM (inactive) with SK-OV-3; 1.84 µM (inactive) in the assay with K562; 2.44 µM (inactive) in the assay on NCI-H23. The GI50 with OVCAR-8 is 1.22 µM (inactive); in the assay on HCT-15, 2.06 µM; in the assay on SW-620, 1.01 µM (active); in the assay with HCT-116, 2 µM (inactive); in the assay on OVCAR-3, 6.18 µM (inactive); with A498 it was 15.8 µM (inactive).
Consider `COc1ccc(-c2c(N)n(-c3nc4ccccc4s3)c(=O)c3cc([N+](=O)[O-])ccc23)cc1`, for which the GI50 was 13.7 µM (inactive) in the assay with Hs-578T; 16.9 µM (inactive) with MDA-MB-231; 4.29 µM (inactive) with 786-0; 17.8 µM (inactive) in the assay with M14; 11.2 µM (inactive) in the assay with A549; 14.9 µM (inactive) in the assay with LOX IMVI. Further, the GI50 is 22.2 µM (inactive) in the assay with OVCAR-5; 25.4 µM (inactive) with SK-MEL-2; 15.3 µM (inactive) with SK-OV-3; 24.1 µM (inactive) in the assay on OVCAR-4; 23.2 µM (inactive) in the assay on K562; 13.8 µM (inactive) in the assay with NCI-H23. Also, the GI50 in the assay with OVCAR-8 is 11.2 µM (inactive); in the assay on HCT-15, 41.8 µM; in the assay with SW-620, 19.7 µM (inactive); with HCT-116, 20.1 µM (inactive); in the assay on OVCAR-3, 17 µM (inactive); with A498 it was 74 µM (inactive).

Values taken from ChEMBL document CHEMBL1201862, “PubChem BioAssay data set” (2004).
